Reference: ChEMBL document CHEMBL5291721, “A preclinical secondary pharmacology resource illuminates target-adverse drug reaction associations of marketed drugs” (Nat Commun, 2023)

Assays:
Thromboxane A2 receptor = biological target: T1, Thromboxane A2 receptor (Homo sapiens, UniProt P21731)
T1 sequence (P21731 whole entry): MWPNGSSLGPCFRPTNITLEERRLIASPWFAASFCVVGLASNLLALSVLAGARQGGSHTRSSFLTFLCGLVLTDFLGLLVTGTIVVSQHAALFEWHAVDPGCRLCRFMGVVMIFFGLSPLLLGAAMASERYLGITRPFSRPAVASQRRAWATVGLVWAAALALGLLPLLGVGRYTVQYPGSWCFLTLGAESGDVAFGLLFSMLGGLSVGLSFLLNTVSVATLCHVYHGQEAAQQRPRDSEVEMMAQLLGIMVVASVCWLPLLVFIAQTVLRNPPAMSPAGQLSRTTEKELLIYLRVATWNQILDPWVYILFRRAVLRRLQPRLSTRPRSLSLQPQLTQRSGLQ

[1] = biological target: T2, Type-1 angiotensin II receptor (Homo sapiens, UniProt P30556)
T2 sequence (P30556 whole entry): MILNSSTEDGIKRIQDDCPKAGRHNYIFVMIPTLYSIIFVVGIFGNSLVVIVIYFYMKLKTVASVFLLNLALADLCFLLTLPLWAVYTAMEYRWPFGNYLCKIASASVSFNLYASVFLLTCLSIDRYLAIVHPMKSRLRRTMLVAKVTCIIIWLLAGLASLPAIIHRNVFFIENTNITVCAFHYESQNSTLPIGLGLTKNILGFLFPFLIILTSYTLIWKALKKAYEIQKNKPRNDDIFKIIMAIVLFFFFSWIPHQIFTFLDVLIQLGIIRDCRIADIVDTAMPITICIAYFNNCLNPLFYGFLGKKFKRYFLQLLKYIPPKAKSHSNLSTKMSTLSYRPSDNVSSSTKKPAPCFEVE

[2] = biological target: Glutamate receptor ionotropic, NMDA 1 (Rattus norvegicus, UniProt P35439)
[3] = biological target: T3, Cholecystokinin receptor type A (Homo sapiens, UniProt P32238)
T3 sequence (P32238 whole entry): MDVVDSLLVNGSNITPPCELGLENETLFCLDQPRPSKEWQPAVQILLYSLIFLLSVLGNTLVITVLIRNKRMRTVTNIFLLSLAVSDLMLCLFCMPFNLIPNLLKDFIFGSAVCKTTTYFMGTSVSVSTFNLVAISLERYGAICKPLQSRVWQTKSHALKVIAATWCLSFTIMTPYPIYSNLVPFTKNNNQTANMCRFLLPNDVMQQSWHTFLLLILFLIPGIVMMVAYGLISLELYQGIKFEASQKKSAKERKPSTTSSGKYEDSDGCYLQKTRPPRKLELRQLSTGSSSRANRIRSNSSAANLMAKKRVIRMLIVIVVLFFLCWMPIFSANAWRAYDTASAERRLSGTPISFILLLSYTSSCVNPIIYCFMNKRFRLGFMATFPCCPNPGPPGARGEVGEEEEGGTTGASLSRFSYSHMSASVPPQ

[4] = biological target: Sodium-dependent noradrenaline transporter (Homo sapiens, UniProt P23975)
Sequence of Sodium-dependent noradrenaline transporter (P23975 whole entry): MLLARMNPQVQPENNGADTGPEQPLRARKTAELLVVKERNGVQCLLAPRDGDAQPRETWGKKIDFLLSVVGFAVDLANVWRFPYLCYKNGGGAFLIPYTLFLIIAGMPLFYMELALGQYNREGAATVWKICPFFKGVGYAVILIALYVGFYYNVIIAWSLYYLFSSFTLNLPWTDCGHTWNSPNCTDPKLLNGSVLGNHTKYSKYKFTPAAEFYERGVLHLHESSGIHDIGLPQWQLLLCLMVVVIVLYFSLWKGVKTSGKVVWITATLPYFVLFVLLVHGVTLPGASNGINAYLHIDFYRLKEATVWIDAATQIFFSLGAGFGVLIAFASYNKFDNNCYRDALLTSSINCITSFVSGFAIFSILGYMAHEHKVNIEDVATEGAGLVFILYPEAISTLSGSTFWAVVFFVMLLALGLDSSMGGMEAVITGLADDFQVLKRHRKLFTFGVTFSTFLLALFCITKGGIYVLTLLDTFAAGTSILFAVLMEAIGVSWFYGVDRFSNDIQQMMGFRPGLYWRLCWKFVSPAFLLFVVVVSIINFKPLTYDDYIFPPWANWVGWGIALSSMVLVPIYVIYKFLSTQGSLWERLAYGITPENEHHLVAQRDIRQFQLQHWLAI

Histamine H2 receptor = Histamine H2 receptor (Homo sapiens, UniProt P25021); format: functional, cell-based
Sequence of Histamine H2 receptor (P25021 whole entry): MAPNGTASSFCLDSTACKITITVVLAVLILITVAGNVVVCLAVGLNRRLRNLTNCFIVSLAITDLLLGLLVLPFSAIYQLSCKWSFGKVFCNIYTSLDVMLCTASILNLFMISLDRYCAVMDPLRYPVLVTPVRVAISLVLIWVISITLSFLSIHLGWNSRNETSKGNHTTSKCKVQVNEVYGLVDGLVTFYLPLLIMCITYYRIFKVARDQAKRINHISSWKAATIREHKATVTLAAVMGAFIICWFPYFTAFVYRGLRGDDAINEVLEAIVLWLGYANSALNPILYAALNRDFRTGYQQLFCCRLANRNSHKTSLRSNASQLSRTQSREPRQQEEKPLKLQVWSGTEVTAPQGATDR

Endothelin-1 receptor = biological target: T4, Endothelin-1 receptor (Homo sapiens, UniProt P25101)
T4 sequence (P25101 whole entry): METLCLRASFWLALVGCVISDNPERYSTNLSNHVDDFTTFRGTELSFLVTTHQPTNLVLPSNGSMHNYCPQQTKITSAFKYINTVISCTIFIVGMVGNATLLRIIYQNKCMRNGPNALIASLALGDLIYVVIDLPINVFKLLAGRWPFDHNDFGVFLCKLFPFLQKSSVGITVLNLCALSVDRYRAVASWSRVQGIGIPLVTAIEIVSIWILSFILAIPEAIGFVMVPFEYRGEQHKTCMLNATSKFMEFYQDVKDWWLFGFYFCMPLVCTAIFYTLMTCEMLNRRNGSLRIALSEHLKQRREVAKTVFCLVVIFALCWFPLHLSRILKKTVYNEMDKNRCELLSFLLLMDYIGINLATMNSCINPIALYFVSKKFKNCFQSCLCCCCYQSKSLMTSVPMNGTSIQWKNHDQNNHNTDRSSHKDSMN

D(3) dopamine receptor = D(3) dopamine receptor (Homo sapiens, UniProt P35462)
Sequence of D(3) dopamine receptor (P35462 whole entry): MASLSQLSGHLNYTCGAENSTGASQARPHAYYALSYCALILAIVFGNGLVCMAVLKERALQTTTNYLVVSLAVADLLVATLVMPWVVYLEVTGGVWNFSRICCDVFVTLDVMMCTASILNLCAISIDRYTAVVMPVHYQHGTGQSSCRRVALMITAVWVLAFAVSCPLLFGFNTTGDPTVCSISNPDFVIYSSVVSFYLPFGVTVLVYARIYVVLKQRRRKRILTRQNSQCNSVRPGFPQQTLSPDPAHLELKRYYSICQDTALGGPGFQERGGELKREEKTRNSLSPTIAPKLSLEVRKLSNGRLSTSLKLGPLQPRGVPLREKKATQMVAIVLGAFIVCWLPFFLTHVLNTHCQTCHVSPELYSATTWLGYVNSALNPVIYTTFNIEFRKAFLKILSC

[5] = biological target: T5, Alpha-2A adrenergic receptor (Homo sapiens, UniProt P08913); format: functional, cell-based
T5 sequence (P08913 whole entry): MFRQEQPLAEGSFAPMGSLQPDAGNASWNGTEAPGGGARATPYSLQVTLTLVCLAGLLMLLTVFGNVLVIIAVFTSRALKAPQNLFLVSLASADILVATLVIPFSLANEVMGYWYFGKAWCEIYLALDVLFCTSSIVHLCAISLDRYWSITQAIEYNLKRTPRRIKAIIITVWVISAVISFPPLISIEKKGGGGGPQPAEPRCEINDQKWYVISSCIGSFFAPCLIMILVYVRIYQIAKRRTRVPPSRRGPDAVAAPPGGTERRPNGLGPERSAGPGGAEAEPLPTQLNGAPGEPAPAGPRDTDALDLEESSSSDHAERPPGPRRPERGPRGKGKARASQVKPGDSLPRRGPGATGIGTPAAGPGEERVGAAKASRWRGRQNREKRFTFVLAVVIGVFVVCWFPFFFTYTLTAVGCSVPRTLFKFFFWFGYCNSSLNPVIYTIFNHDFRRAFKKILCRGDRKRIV

Melanocortin receptor 4 = Melanocortin receptor 4 (Homo sapiens, UniProt P32245)
Sequence of Melanocortin receptor 4 (P32245 whole entry): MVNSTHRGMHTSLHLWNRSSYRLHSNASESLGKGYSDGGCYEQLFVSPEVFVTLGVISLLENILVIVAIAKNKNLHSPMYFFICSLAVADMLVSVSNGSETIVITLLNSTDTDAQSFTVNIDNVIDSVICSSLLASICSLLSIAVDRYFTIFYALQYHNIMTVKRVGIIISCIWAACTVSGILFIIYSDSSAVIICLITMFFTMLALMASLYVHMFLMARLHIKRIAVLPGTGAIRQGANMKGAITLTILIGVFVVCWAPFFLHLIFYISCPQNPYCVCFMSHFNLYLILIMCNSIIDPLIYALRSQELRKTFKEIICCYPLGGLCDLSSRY

[6] = biological target: Voltage-dependent L-type calcium channel subunit alpha-1C (Rattus norvegicus, UniProt P22002); format: functional
Sequence of Voltage-dependent L-type calcium channel subunit alpha-1C (P22002 whole entry): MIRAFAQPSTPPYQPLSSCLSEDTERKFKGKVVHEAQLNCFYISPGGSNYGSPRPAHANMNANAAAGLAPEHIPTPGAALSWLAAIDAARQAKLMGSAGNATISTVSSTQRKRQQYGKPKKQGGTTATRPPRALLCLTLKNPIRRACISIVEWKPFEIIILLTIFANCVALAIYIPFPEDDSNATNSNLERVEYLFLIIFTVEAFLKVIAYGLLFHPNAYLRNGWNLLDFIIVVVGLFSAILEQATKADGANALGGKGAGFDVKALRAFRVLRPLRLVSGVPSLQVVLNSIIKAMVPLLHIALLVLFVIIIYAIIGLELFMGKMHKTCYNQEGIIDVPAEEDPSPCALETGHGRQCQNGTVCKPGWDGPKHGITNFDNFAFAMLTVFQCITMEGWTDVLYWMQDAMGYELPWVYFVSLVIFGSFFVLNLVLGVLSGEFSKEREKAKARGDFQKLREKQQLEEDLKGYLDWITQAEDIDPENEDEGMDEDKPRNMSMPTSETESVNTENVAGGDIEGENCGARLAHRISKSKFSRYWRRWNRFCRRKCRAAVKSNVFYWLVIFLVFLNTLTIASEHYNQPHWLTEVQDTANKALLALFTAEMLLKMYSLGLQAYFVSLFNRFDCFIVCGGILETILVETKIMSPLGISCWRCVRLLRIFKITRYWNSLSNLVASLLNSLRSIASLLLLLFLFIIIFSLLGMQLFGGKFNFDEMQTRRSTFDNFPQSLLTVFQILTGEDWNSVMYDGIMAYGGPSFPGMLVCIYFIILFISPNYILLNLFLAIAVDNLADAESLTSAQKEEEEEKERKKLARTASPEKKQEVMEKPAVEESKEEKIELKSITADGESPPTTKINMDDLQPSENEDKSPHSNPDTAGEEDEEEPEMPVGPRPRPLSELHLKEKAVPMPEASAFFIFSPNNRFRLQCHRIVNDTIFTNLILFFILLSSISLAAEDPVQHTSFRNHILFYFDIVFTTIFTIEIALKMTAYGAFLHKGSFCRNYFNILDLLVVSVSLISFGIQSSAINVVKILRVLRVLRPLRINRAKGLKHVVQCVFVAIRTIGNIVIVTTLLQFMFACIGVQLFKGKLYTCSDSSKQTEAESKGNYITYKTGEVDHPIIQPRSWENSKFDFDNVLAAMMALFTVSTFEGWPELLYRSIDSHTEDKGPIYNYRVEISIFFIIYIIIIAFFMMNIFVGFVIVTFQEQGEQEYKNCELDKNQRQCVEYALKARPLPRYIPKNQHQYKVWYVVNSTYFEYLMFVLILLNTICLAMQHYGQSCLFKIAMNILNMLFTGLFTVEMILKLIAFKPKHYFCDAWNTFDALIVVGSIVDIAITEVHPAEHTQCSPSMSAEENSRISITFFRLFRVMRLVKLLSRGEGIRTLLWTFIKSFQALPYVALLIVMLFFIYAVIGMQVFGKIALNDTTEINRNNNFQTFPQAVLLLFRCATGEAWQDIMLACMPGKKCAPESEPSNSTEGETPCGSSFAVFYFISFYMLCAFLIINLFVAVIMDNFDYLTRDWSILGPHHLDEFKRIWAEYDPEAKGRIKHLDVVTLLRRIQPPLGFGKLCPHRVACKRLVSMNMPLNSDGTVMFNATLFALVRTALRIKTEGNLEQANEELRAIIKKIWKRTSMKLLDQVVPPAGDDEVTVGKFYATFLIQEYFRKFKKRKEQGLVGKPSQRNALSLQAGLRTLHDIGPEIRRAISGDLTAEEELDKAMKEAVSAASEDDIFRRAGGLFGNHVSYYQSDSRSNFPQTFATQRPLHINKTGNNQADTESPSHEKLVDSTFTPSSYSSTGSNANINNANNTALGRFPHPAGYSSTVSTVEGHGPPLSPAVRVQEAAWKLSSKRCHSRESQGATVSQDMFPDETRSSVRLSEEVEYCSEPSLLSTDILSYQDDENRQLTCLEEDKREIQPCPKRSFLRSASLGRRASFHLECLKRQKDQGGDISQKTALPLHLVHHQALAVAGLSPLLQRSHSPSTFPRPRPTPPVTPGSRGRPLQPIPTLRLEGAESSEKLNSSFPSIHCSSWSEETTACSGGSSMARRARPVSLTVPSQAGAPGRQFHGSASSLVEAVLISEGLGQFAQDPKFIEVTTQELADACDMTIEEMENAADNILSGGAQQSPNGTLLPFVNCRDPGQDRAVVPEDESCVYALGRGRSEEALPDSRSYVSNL

[7] = biological target: Beta-2 adrenergic receptor (Homo sapiens, UniProt P07550)
Sequence of Beta-2 adrenergic receptor (P07550 whole entry): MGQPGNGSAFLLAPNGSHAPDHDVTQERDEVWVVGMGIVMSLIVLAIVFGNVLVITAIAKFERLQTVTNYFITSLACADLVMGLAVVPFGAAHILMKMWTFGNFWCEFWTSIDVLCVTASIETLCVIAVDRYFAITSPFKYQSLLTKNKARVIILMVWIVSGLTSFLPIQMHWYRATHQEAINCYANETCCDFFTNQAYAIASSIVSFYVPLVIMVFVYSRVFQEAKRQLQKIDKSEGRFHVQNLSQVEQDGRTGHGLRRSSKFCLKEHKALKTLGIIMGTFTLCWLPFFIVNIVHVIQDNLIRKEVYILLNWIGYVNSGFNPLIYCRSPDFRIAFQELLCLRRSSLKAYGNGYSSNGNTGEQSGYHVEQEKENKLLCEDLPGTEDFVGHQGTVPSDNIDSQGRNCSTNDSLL
Note: assay procedure not described here.

Row | Structure (SMILES) | AC50 (Thromboxane A2 receptor) [µM] | AC50 [1] [µM] | AC50 [2] [µM] | AC50 [3] [µM] | AC50 [4] [µM] | AC50 (Histamine H2 receptor) [µM] | AC50 (Endothelin-1 receptor) [µM] | AC50 (D(3) dopamine receptor) [µM] | AC50 [5] [µM] | AC50 (Melanocortin receptor 4) [µM] | AC50 [6] [µM] | AC50 [7] [µM]
1 | C[C@@H](NCCCc1cccc(C(F)(F)F)c1)c1cccc2ccccc12 | > 30 | > 30 | > 30 | > 30 | 7.2 | > 30 | > 30 | 1.5 | > 30 | – | – | –
2 | COc1ccc(CC2c3cc(OC)c(OC)cc3CC[N+]2(C)CCC(=O)OCCCCCOC(=O)CC[N+]2(C)CCc3cc(OC)c(OC)cc3C2Cc2ccc(OC)c(OC)c2)cc1OC (stereo not given) | > 30 | > 30 | > 30 | > 30 | 11.3 | > 30 | – | > 30 | > 30 | > 30 | > 30 | > 30
3 | CCN1CCN(Cc2ccc(Nc3ncc(F)c(-c4cc(F)c5nc(C)n(C(C)C)c5c4)n3)nc2)CC1 [ABEMACICLIB] | – | > 30 | – | > 30 | > 30 | – | > 30 | > 30 | > 30 | – | – | –
4 | COc1ccccc1Oc1c(NS(=O)(=O)c2ccc(C(C)(C)C)cc2)nc(-c2ncccn2)nc1OCCO [BOSENTAN] | > 30 | > 30 | > 10 | > 30 | > 30 | > 10 | – | > 30 | > 10 | > 30 | > 10 | > 10
5 | COc1cc2nccc(Oc3ccc(NC(=O)C4(C(=O)Nc5ccc(F)cc5)CC4)cc3)c2cc1OC [CABOZANTINIB] | – | > 30 | – | > 30 | > 30 | – | > 30 | > 30 | > 30 | – | – | –
6 | O=C1CN(/N=C/c2ccc(-c3ccc([N+](=O)[O-])cc3)o2)C(O)=N1 [DANTROLENE] | > 10 | > 10 | > 10 | > 10 | > 10 | > 10 | – | > 30 | > 10 | > 10 | > 10 | > 10
7 | CN(C)CC[C@@H](c1ccc(Cl)cc1)c1ccccn1 [DEXCHLORPHENIRAMINE] | > 30 | > 30 | > 30 | > 30 | 18 | > 30 | > 30 | > 30 | > 30 | – | > 30 | > 30
8 | C[C@]12C=CC(=O)N[C@@H]1CC[C@@H]1[C@@H]2CC[C@]2(C)[C@@H](C(=O)Nc3cc(C(F)(F)F)ccc3C(F)(F)F)CC[C@@H]12 [DUTASTERIDE] | > 10 | > 30 | > 10 | > 10 | > 10 | > 10 | – | > 30 | > 10 | > 10 | > 10 | > 10
9 | CN1C[C@H](C(=O)N[C@]2(C)O[C@@]3(O)[C@@H]4CCCN4C(=O)[C@H](Cc4ccccc4)N3C2=O)C=C2c3cccc4[nH]cc(c34)C[C@H]21 [ERGOTAMINE] | – | > 30 | – | > 30 | > 30 | – | > 30 | 1.6 | > 10 | – | – | –
10 | CN(C)CCC[C@@]1(c2ccc(F)cc2)OCc2cc(C#N)ccc21 [ESCITALOPRAM] | > 30 | > 30 | > 30 | > 30 | – | – | > 30 | – | > 30 | – | – | –
11 | C#C[C@]1(O)CC[C@H]2[C@@H]3CCC4=CC(=O)CC[C@@H]4[C@H]3C(=C)C[C@@]21CC [ETONOGESTREL] | – | – | > 30 | – | – | > 30 | – | > 30 | > 30 | – | – | –
12 | CN(CC1(C)CCCO1)S(=O)(=O)c1ccc(Cl)c(S(N)(=O)=O)c1 (stereo not given) [MEFRUSIDE] | – | – | > 30 | – | – | > 30 | – | > 30 | > 30 | – | – | –
13 | CC(=O)O[C@]1(C(C)=O)CC[C@H]2[C@@H]3C=C(C)C4=CC(=O)CC[C@@H]4[C@H]3CC[C@@]21C [NOMEGESTROL ACETATE] | > 30 | – | > 10 | – | > 30 | > 30 | – | > 30 | > 30 | – | – | –
14 | C=C[C@H]1C[N@@]2CC[C@H]1C[C@@H]2[C@@H](O)c1ccnc2ccc(OC)cc12 [QUINIDINE] | – | > 30 | > 10 | > 30 | > 30 | > 10 | – | 2.8 | > 10 | > 30 | – | > 10
15 | CC(C)c1nc(N(C)S(C)(=O)=O)nc(-c2ccc(F)cc2)c1/C=C/[C@@H](O)C[C@@H](O)CC(=O)O [ROSUVASTATIN] | – | > 30 | > 30 | > 30 | > 30 | > 30 | > 30 | > 30 | > 30 | – | – | –
16 | OC[C@H]1O[C@@](CO)(O[C@H]2O[C@H](CO)[C@@H](O)[C@H](O)[C@H]2O)[C@@H](O)[C@@H]1O [SUCROSE] | – | > 30 | > 30 | > 30 | > 30 | > 30 | > 30 | > 30 | > 30 | – | – | –
17 | CCN(CC)CCNC(=O)c1c(C)[nH]c(/C=C2\C(=O)Nc3ccc(F)cc32)c1C [SUNITINIB] | 9.1 | 4.3 | > 30 | 6.7 | 1.76 | > 30 | 8.3 | 1.94 | > 30 | – | > 30 | 8
18 | CC(C)(C)NCC(O)c1cc(O)cc(O)c1 (stereo not given) [TERBUTALINE] | > 30 | > 30 | – | > 30 | > 30 | – | > 30 | – | – | – | – | –
19 | CC(S)C(=O)NCC(=O)O (stereo not given) [TIOPRONIN] | – | > 30 | – | > 30 | > 30 | – | > 30 | > 30 | > 30 | – | – | –
20 | C[C@H](CCC(=O)O)[C@H]1CC[C@H]2[C@@H]3[C@@H](O)C[C@@H]4C[C@H](O)CC[C@]4(C)[C@H]3CC[C@]12C [URSODIOL] | – | > 30 | – | > 30 | > 30 | – | > 30 | > 30 | > 30 | – | – | –
